According to patent publication US10358409B2, “Low-toxicity olefinic ester compositions and methods of using the same” (Elevance Renewable Sciences, Inc., priority 2014, dated 2019):

Test system: leptocheirus plumolosus
Experiment: Aquatic toxicity, EPA Test No. 1644, percent survival after 10 days of exposure
Assay type: in vivo
Method: The aquatic toxicity of three cyclohexyl esters were tested against three comparative compounds. Aqueous samples of the following solvents were prepared at concentrations of 3200 mg/kg: xylene (Sample 2A); methyl 9-dodecenoate (Sample 2B); methyl esters of a mixture of C13-15 olefinic acids (Sample 2C); cyclohexyl 9-decenoate (Sample 2D); cyclohexyl 9-dodecenoate (Sample 2E); and cyclohexyl esters of a mixture of C13-15 olefinic acids. Using United States Environmental Protection Agency (EPA) Test No. 1644, the toxicity of the aqueous compositions was measured as the percent survival of leptocheirus plumolosus after 10 days of exposure. Table 1 recites the survival rates for each of the above compositions.

[1] = Leptocheirus plumolosus, in vivo, 3200 mg/kg, 10 days

| Compound | Survival Rate (%) (aqueous samples of the solvent at 3200 mg/kg, percent survival of leptocheirus plumolosus after 10 days of exposure) | Survival Rate (%) [1] |
| --- | --- | --- |
| xylene [Sample 2A] | 69% | – |
| CCC=CCCCCCCCC(=O)OC [Sample 2B, methyl 9-dodecenoate] | – | 47% |
| C=CCCCCCCCC(=O)OC1CCCCC1 [Sample 2D, cyclohexyl 9-decenoate] | – | 57% |
| CCC=CCCCCCCCC(=O)OC1CCCCC1 [Sample 2E, cyclohexyl 9-dodecenoate] | – | 89% |
